Test results: US9598423B2 (BRISTOL-MYERS SQUIBB COMPANY, priority 2013, dated 2017)

These molecules were tested against CK1ε (Homo sapiens (Human), UniProt P49674) (assay: CK1ε kinase assay (Caliper LABCHIP electrophoretic separation of fluoresceinated peptide substrate and product)). Conditions: 200 pM CK1ε, 50 μM ATP, 1.5 μM peptide substrate, 22 hours at room temperature; read-out: CK1ε (IC50).
Type: biochemical
Method: (§1) CK1ε and CK1δ Kinase Assays
(§2) The kinase assay was performed in V-bottom 384-well plates. […] The reaction was incubated at room temperature for 22 hours and terminated by adding 45 μl of 35 mM EDTA to each sample. The reaction mixture was analyzed on the Caliper LABCHIP®3000 (Caliper, Hopkinton, Mass.) by electrophoretic separation of the unphosphorylated substrate and phosphorylated product. […] Compounds were dissolved at 10 mM in dimethylsulfoxide (DMSO) and evaluated at eleven concentrations. IC50 values were derived by non-linear regression analysis.

Sequence of CK1ε (P49674 whole entry): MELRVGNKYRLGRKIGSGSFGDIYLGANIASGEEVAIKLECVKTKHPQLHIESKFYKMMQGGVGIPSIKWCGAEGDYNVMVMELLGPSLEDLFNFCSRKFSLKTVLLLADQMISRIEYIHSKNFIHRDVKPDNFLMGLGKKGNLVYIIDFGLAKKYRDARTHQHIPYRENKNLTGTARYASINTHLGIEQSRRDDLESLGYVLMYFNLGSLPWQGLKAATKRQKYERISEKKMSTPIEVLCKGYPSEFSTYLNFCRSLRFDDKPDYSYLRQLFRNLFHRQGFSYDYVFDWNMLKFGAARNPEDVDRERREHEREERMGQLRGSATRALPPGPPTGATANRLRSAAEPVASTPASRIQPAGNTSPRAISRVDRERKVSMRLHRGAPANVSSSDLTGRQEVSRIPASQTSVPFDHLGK

IC50 | SMILES
0.01 to 10 nM | N#Cc1ccc(NC(=O)N2Cc3c(C(N)=O)c(-c4ccc(F)c(Cl)c4)nn3[C@@H](C(F)F)C2)cc1 [Compound A21, (R)-2-(3-Chloro-4-fluorophenyl)-N^5-(4-cyanophenyl)-7-(difluoromethyl)-6,7-dihydropyrazolo[1,5-a]pyrazine-3,5(4H)-dicarboxamide]
0.01 to 10 nM | N#Cc1ccc(NC(=O)N2Cc3c(C(N)=O)c(-c4ccc(F)c(Cl)c4)nn3[C@H](C(F)F)C2)cc1 [Compound A20, (S)-2-(3-Chloro-4-fluorophenyl)-N^5-(4-cyanophenyl)-7-(difluoromethyl)-6,7-dihydropyrazolo[1,5-a]pyrazine-3,5(4H)-dicarboxamide]
0.01 to 10 nM | CC1CN(C(N)=O)Cc2c(C(=O)NC(C)(C)C)c(-c3ccc(Cl)c(Cl)c3)nn21 (stereo not drawn) [Compound A33, N-(tert-Butyl)-2-(3,4-dichlorophenyl)-7-methyl-6,7-dihydropyrazolo[1,5-a]pyrazine-3,5(4H)-dicarboxamide]
0.01 to 10 nM | N#Cc1ccc(NC(=O)N2Cc3c(C(N)=O)c(-c4ccc(F)c(Cl)c4)nn3[C@@H](CF)C2)cc1F [Compound A17, (R)-2-(3-Chloro-4-fluorophenyl)-N^5-(4-cyano-3-fluorophenyl)-7-(fluoromethyl)-6,7-dihydropyrazolo[1,5-a]pyrazine-3,5(4H)-dicarboxamide]
0.01 to 10 nM | N#Cc1ccc(NC(=O)N2Cc3c(C(N)=O)c(-c4ccc(F)c(Cl)c4)nn3C(CF)C2)cc1Cl (single isomer, unassigned) [Compound A15, N^5-(3-Chloro-4-cyanophenyl)-2-(3-chloro-4-fluorophenyl)-7-(fluoromethyl)-6,7-dihydropyrazolo[1,5-a]pyrazine-3,5(4H)-dicarboxamide]
0.01 to 10 nM | N#CC1(c2ccc(NC(=O)N3CCn4nc(-c5ccc(F)c(Cl)c5)c(C(N)=O)c4C3)cc2)CC1 [Compound A54, 2-(3-Chloro-4-fluorophenyl)-N^5-(4-(1-cyanocyclopropyl)phenyl)-6,7-dihydropyrazolo[1,5-a]pyrazine-3,5(4H)-dicarboxamide]
0.01 to 10 nM | N#Cc1ccc(NC(=O)N2Cc3c(C(N)=O)c(-c4ccc(F)c(Cl)c4)nn3[C@H](CF)C2)cc1F [Compound A16, (S)-2-(3-Chloro-4-fluorophenyl)-N^5-(4-cyano-3-fluorophenyl)-7-(fluoromethyl)-6,7-dihydropyrazolo[1,5-a]pyrazine-3,5(4H)-dicarboxamide]

The remaining lines, values behind:

SMILES | IC50
Cc1cc(NC(=O)N2CCn3nc(-c4cc(Cl)cc(N(C)C)c4)c(C(N)=O)c3C2)ccc1C#N [Compound 267, 2-(3-Chloro-5-(dimethylamino)phenyl)-N^5-(4-cyano-3-methylphenyl)-6,7-dihydropyrazolo[1,5-a] pyrazine-3,5(4H)-dicarboxamide] | 0.01 to 10 nM
CN(C)c1cc(Cl)cc(-c2nn3c(c2C(N)=O)CN(C(=O)Nc2ccc(C#N)c(F)c2)CC3)c1 [Compound 269, 2-(3-Chloro-5-(dimethylamino)phenyl)-N^5-(4-cyano-3-fluorophenyl)-6,7-dihydropyrazolo[1,5-a] pyrazine-3,5(4H)-dicarboxamide] | 0.01 to 10 nM
N#Cc1ccc(NC(=O)N2CCn3nc(-c4cc(Cl)c5[nH]ncc5c4)c(C(N)=O)c3C2)cc1 [Compound 315, 2-(7-Chloro-1H-indazol-5-yl)-N^5-(4-cyanophenyl)-6,7-dihydropyrazolo[1,5-a]pyrazine-3,5(4H)-dicarboxamide] | 0.01 to 10 nM
NC(=O)c1c(-c2cccc(F)c2)nn2c1CN(C(=O)NC13C[C@@H]4CC1C[C@@H](C4)C3)CC2 [Compound 23, 2-(3-Fluorophenyl)-N^5-((2R,5S)-octahydro-2,5-methanopentalen-6a-yl)-6,7-dihydropyrazolo[1,5-a]pyrazine-3,5(4H)-dicarboxamide] | 0.01 to 10 nM
N#Cc1ccc(NC(=O)N2CCn3nc(-c4cc(Cl)c5cncn5c4)c(C(N)=O)c3C2)cc1 [Compound 308, 2-(8-Chloroimidazo[1,5-a]pyridin-6-yl)-N-(4-cyanophenyl)-6,7-dihydropyrazolo[1,5-a]pyrazine-3,5(4H)-dicarboxamide] | 0.01 to 10 nM
N#Cc1ccc(NC(=O)N2CCn3nc(-c4cc(Cl)c5ocnc5c4)c(C(N)=O)c3C2)cc1 [Compound 309, 2-(7-Chlorobenzo[d]oxazol-5-yl)-N^5-(4-cyanophenyl)-6,7-dihydropyrazolo[1,5-a]pyrazine-3,5(4H)-dicarboxamide] | 0.01 to 10 nM
NC(=O)c1c(-c2ccc(F)c(Cl)c2)nn2c1CN(C(=O)Nc1ccc3ccncc3c1)CC2 [Compound 196, 2-(3-Chloro-4-fluorophenyl)-N^5-(isoquinolin-7-yl)-6,7-dihydropyrazolo[1,5-a] pyrazine-3,5(4H)-dicarboxamide] | 0.01 to 10 nM
Cc1cc(C)cc(-c2nn3c(c2C(N)=O)CN(C(=O)NC(C)(C)C)CC3)c1 [Compound 128, N^5-(tert-Butyl)-2-(3,5-dimethylphenyl)-6,7-dihydropyrazolo[1,5-a]pyrazine-3,5(4H)-dicarboxamide] | 0.01 to 10 nM
CN(C)c1cc(Cl)cc(-c2nn3c(c2C(N)=O)CN(C(=O)Nc2ccc(C#N)cc2)CC3)c1 [Compound 265, 2-(3-Chloro-5-(dimethylamino)phenyl)-N^5-(4-cyanophenyl)-6,7-dihydropyrazolo[1,5-a]pyrazine-3,5(4H)-dicarboxamide] | 0.01 to 10 nM
N#Cc1ccc(NC(=O)N2CCn3nc(-c4cnc(F)c(Cl)c4)c(C(N)=O)c3C2)cc1F [Compound 295, 2-(5-Chloro-6-fluoropyridin-3-yl)-N^5-(4-cyano-3-fluorophenyl)-6,7-dihydropyrazolo[1,5-a] pyrazine-3,5(4H)-dicarboxamide] | 0.01 to 10 nM
CN(C)c1cc(Cl)cc(-c2nn3c(c2C(N)=O)CN(C(=O)Nc2ccc(C#N)c(Cl)c2)CC3)c1 [Compound 268, N^5-(3-Chloro-4-cyanophenyl)-2-(3-chloro-5-(dimethyl-amino)phenyl)-6,7-dihydropyrazolo[1,5-a] pyrazine-3,5(4H)-dicarboxamide] | 0.01 to 10 nM
Cc1cc(-c2nn3c(c2C(N)=O)CN(C(=O)Nc2ccc(C#N)c(C)c2)CC3)ccc1F [Compound 239, N^5-(4-Cyano-3-methylphenyl)-2-(4-fluoro-3-methylphenyl)-6,7-dihydropyrazolo[1,5-a]pyrazine-3,5(4H)-dicarboxamide] | 0.01 to 10 nM
N#Cc1ccc(NC(=O)N2CCn3nc(-c4ccc(C5CC5)c(Cl)c4)c(C(N)=O)c3C2)cc1 [Compound 258, 2-(3-Chloro-4-cyclopropylphenyl)-N^5-(4-cyanophenyl)-6,7-dihydropyrazolo[1,5-a]pyrazine-3,5(4H)-dicarboxamide] | 0.01 to 10 nM

Same assay, conditions: CK1ε (IC50, nM)

SMILES | IC50
CCC1CN(C(=O)Nc2ccc(C#N)cc2)Cc2c(C(N)=O)c(-c3ccc(F)c(Cl)c3)nn21 (single isomer, unassigned) [Compound A68, 2-(3-Chloro-4-fluorophenyl)-N^5-(4-cyanophenyl)-7-ethyl-6,7-dihydropyrazolo[1,5-a]pyrazine-3,5(4H)-dicarboxamide] | 0.01 to 10 nM

Same assay, conditions: read-out: CK1ε (IC50)

SMILES | IC50
N#Cc1ccc(NC(=O)N2CCn3nc(-c4cnc(F)c(Cl)c4)c(C(N)=O)c3C2)cc1Cl [Compound 296, N^5-(3-Chloro-4-cyanophenyl)-2-(5-chloro-6-fluoropyridin-3-yl)-6,7-dihydropyrazolo[1,5-a] pyrazine-3,5(4H)-dicarboxamide] | 0.01 to 10 nM
CCC1CN(C(=O)Nc2ccc(C#N)cc2)Cc2c(C(N)=O)c(-c3ccc(F)c(Cl)c3)nn21 (single isomer, unassigned) [Compound A69, 2-(3-Chloro-4-fluorophenyl)-N^5-(4-cyanophenyl)-7-ethyl-6,7-dihydropyrazolo[1,5-a]pyrazine-3,5(4H)-dicarboxamide] | 0.01 to 10 nM

Each molecule was assayed against CK1δ (Homo sapiens (Human), UniProt P48730) (assay: CK1δ kinase assay (Caliper LABCHIP electrophoretic separation of fluoresceinated peptide substrate and product)). Conditions: 200 pM CK1δ, 50 μM ATP, 1.5 μM peptide substrate, 22 hours at room temperature; read-out: CK1δ (IC50).
Sequence of CK1δ (P48730 whole entry): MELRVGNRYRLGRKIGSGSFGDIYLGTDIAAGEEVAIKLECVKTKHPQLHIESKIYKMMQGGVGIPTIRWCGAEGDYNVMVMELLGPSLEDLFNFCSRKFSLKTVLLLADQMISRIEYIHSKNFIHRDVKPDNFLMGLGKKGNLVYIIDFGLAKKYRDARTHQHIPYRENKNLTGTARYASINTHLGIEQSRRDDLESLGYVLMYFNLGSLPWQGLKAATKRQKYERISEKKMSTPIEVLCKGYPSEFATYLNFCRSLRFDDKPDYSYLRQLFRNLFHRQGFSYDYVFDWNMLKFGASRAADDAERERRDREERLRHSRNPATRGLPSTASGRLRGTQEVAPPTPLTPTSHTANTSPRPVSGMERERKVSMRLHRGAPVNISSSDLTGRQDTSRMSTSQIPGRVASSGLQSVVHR
Type: biochemical
Method: as §1, §2

IC50 | SMILES
0.01 to 10 nM | CC(=O)N1CCC(NC(=O)N2CCn3nc(-c4cccc(F)c4)c(C(N)=O)c3C2)CC1 [Compound 97]
0.01 to 10 nM | NC(=O)c1c(-c2cccc(F)c2)nn2c1CN(C(=O)Nc1cccnc1)CC2 [Compound 68, 2-(3-Fluorophenyl)-N^5-(pyridin-3-yl)-6,7-dihydropyrazolo[1,5-a]pyrazine-3,5(4H)-dicarboxamide]
0.01 to 10 nM | NC(=O)c1c(-c2cccc(F)c2)nn2c1CN(C(=O)NC1CCN(S(=O)(=O)C3CC3)CC1)CC2 [Compound 102, N^5-(1-(Cyclopropylsulfonyl)piperidin-4-yl)-2-(3-fluorophenyl)-6,7-dihydropyrazolo[1,5-a]pyrazine-3,5(4H)-dicarboxamide]
0.01 to 10 nM | CC(C)(NC(=O)N1CCn2nc(-c3cccc(F)c3)c(C(N)=O)c2C1)c1ccccc1 [Compound 25, 2-(3-Fluorophenyl)-N^5-(2-phenylpropan-2-yl)-6,7-dihydropyrazolo[1,5-a]pyrazine-3,5(4H)-dicarboxamide]
0.01 to 10 nM | COc1cc(F)cc(-c2nn3c(c2C(N)=O)CN(C(=O)NC(C)(C)C)CC3)c1 [Compound 137, N^5-(tert-Butyl)-2-(3-fiuoro-5-methoxyphenyl)-6,7-dihydropyrazolo[1,5-a]pyrazine-3,5(4H)-dicarboxamide]
0.01 to 10 nM | N#Cc1ccc(NC(=O)N2Cc3c(C(N)=O)c(-c4ccc(F)c(Cl)c4)nn3[C@@H](C(F)F)C2)cc1F [Compound A23, (R)-2-(3-Chloro-4-fluorophenyl)-N^5-(4-cyano-3-fluorophenyl)-7-(difluoromethyl)-6,7-dihydropyrazolo[1,5-a]pyrazine-3,5(4H)-dicarboxamide]

SMILES | IC50
N#Cc1ccc(NC(=O)N2Cc3c(C(N)=O)c(-c4ccc(F)c(Cl)c4)nn3[C@H](C(F)F)C2)cc1Cl [Compound A18, (S)—N^5-(3-Chloro-4-cyanophenyl)-2-(3-chloro-4-fluorophenyl)-7-(difluoromethyl)-6,7-dihydropyrazolo[1,5-a]pyrazine-3,5(4H)-dicarboxamide] | 0.01 to 10 nM
